Columns and labels:
Adenosine receptor A1 [1] = target: T1, Adenosine receptor A1 (Rattus norvegicus, UniProt P25099); experiment: Agonistic activity against adenosine A1 receptor; assay type: functional
T1 sequence (P25099 whole entry): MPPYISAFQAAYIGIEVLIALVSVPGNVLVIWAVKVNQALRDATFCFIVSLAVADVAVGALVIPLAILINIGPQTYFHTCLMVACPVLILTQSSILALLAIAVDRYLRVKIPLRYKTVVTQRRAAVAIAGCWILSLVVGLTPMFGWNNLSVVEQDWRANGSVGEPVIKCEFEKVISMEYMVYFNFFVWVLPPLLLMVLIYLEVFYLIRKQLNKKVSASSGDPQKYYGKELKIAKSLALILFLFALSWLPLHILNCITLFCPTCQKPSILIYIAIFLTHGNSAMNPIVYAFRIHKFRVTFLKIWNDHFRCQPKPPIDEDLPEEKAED

Adenosine receptor A1 [2] = target: T1, Adenosine receptor A1; experiment: Kd value for adenosine A1 receptor binding at 145 uM
Adenosine receptor A1 [3] = target: T1, Adenosine receptor A1; experiment: Kd value for adenosine A1 receptor binding at 14.5 uM
[4] = target: T2, Adenosine receptor A1 (Rattus norvegicus) (UniProt P25099); experiment: Bmax value for adenosine A1 receptor binding at 14.5 uM
T2 sequence (whole entry): T1 sequence (P25099 whole entry)

[5] = target: T2, Adenosine receptor A1 (Rattus norvegicus); experiment: Bmax value for adenosine A1 receptor binding at 145 uM

| IC50 (Adenosine receptor A1 [1]) | Kd (Adenosine receptor A1 [2]) | Kd (Adenosine receptor A1 [3]) | Bmax [4] | Bmax [5] | SMILES |
| --- | --- | --- | --- | --- | --- |
| 17 nM | – | – | – | – | COc1cc(-c2oc3c(OC)cc(CCCO)cc3c2C=O)ccc1O |
| 120000 nM | 10.6 nM | 1.39 nM | 346 fmol/mg | 319 fmol/mg | CC(CCC(C)C(C)(C)C)C1CC[C@H]2[C@@H]3C[C@H](OS(=O)(=O)O)C4C[C@H](OS(=O)(=O)O)[C@@H](OS(=O)(=O)O)CC4(C)[C@H]3CCC12C (stereo partly specified) |

Source: ChEMBL document CHEMBL1152057, “A note of caution in the use of receptor binding assays to screen marine organisms: the action of halistanol trisulphate on adenosine receptors” (Bioorg Med Chem Lett, 1992)
